Laboratory results reported in PubChem BioAssay (NCI).
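Growth conditions: 96-well plates. Treatment: test compound, 48 hours, 5 concentrations. Analysis: linear interpolation between bracketing concentrations; unreached endpoints set to highest concentration. TGI denotes the concentration required for complete inhibition of growth.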

How the values were obtained:
Experiment in all cases: NCI anticancer screen, dose series, 48 h
[1] = system: SNB-19 CNS
[2] = system: A498 renal
[3] = system: UACC-257 melanoma
[4] = system: OVCAR-5 ovarian
[5] = system: HOP-18 NSCLC
[6] = system: EKVX NSCLC
[7] = system: SK-MEL-28 melanoma
[8] = system: XF 498 CNS
[9] = system: RXF 393 renal
[10] = system: M19-MEL melanoma
[11] = system: KM12 colon
[12] = system: M14 melanoma
[13] = system: MOLT-4 leukemia
[14] = system: K-562 leukemia
[15] = system: SF-295 CNS
[16] = system: RPMI-8226 leukemia
[17] = system: SK-OV-3 ovarian
[18] = system: ACHN renal
[19] = system: HT29 colon
[20] = system: SF-268 CNS
[21] = system: LOX IMVI melanoma
[22] = system: SN12C renal
[23] = system: COLO 205 colon
[24] = system: IGROV1 ovarian
[25] = system: DMS 114 small cell lung
[26] = system: U251 CNS
[27] = system: SK-MEL-2 melanoma
[28] = system: UO-31 renal
[29] = system: OVCAR-8 ovarian
[30] = system: OVCAR-4 ovarian
[31] = system: TK-10 renal
[32] = system: NCI-H23 lung
[33] = system: SK-MEL-5 melanoma
[34] = system: RXF-631 renal
[35] = system: NCI-H460 lung
[36] = system: SF-539 CNS
[37] = system: 786-0 renal
[38] = system: SW-620 colon
[39] = system: HOP-92 NSCLC
[40] = system: NCI-H226 lung
[41] = system: SNB-75 CNS
[42] = system: HCT-15 colon
[43] = system: DMS 273 small cell lung
[44] = system: HCC-2998 colon
[45] = system: HOP-62 NSCLC
[46] = system: UACC-62 melanoma
[47] = system: LXFL 529 NSCLC
[48] = system: KM20L2 colon
[49] = system: MALME-3M melanoma
[50] = system: A549 NSCLC
[51] = system: NCI-H522 lung
[52] = system: HL-60(TB) leukemia
[53] = system: CAKI-1 renal
[54] = system: CCRF-CEM leukemia
[55] = system: OVCAR-3 ovarian
[56] = system: HCT-116 colon

Measured: TGI

CC(C)OC(=O)c1cc(NC(=O)C(C)(C)C)c(F)cc1Cl
> 100 µM: all assays above
